From patent publication US10968217B2, “Tetrahydropyridopyrimidines for the treatment and prophylaxis of hepatitis B virus infection” (Hoffmann-La Roche Inc., priority 2016, dated 2021)
pIC50: −log10 of the molar value.

Tested on: HBsAg
Assay: HBsAg assay (CLIA of secreted HBsAg in HepG2.2.15 culture supernatant)
Type: cell-based, HBV
Settings: Hepatitis B virus, HepG2.2.15, read-out: IC50 (HBsAg assay)
Protocol: (§1) HepG2.2.15 cells (Acs et al. Proc Natl Acad Sci USA, 84, (1987), 4641-4), a constitutively HBV-expressing cell line were cultured in DMEM+Glutamax-I medium (Invitrogen, Carlsbad, Calif., USA), supplemented with 10% fetal bovine serum (Invitrogen) and G418 (Invitrogen) at a final concentration of 200 mg/L and maintained in 5% CO2 at 37° C.
HepG2.2.15 cells were seeded in duplicate into white, 96-well plates at 1.5×10^4 cells/well. The cells were treated with a three-fold serial dilution series of the compounds in DMSO. The final DMSO concentration in all wells was 1% and DMSO was used as no drug control.
The HBsAg chemiluminescence immunoassay (CLIA) kit (Autobio Diagnostics Co., Zhengzhou, China, Catalog number: CL0310-2) was used to measure the levels of secreted HBV antigens semi-quantitatively. For the detection 50 μL/well culture supernatant was used and HBsAg was quantified using HBsAg chemiluminescence immunoassay (CLIA) kit (Autobio Diagnostics Co., Zhengzhou, China, Catalog number: CL0310-2), 50 μL of the supernatant was transferred to the CLIA assay plate and 50 μL of enzyme conjugate reagent was added into each well. The plates were sealed and gently agitated for 1 hour at room temperature. The supernatant-enzyme-mixture was discarded and wells were washed 6 times with 300 μL of PBS. The residual liquid was removed by plating the CLIA plate right side down on absorbent tissue paper. 25 μL of substrates A and B were added to each well. Luminance was measured using a luminometer (Mithras LB 940 Multimode Microplate Reader) after 10 minutes incubation. Dose-response curves were generated and the IC50 value was extrapolated by using the E-WorkBook Suite (ID Business Solutions Ltd., Guildford, UK). The IC50 was defined as the compound concentration at which HBsAg secretion was reduced by 50% compared to the no drug control.

COc1ccc(C(=O)N2CCc3nc(-c4ccccn4)ncc3C2C)s1 (stereo not drawn) [Example 58, (5-Methoxy-2-thienyl)-[5-methyl-2-(2-pyridyl)-7,8-dihydro-5H-pyrido[4,3-d]pyrimidin-6-yl]methanone] and CC1c2cnc(-c3ccccn3)nc2CCN1C(=O)c1ccc(Cl)s1 (stereo not drawn) [Example 42, (5-Chloro-2-thienyl)-[5-methyl-2-(2-pyridyl)-7,8-dihydro-5H-pyrido[4,3-d]pyrimidin-6-yl]methanone] are within 0.2 log units of each other in pIC50: 6.55 for the first, 6.59 for the second.

CCC1c2cnc(-c3ccccn3)nc2CCN1C(=O)c1ccc(OC)c(OC)c1 (single isomer, unassigned; (-)) [Example 35, (−)-(3,4-Dimethoxyphenyl)-[5-ethyl-2-(2-pyridyl)-7,8-dihydro-5H-pyrido[4,3-d]pyrimidin-6-yl]methanone] and COc1ccc(C(=O)N2CCc3nc(-c4ccccn4)ncc3C2C)cc1OC (single isomer, unassigned; (-)) [Example 34, (−)-(3,4-Dimethoxyphenyl)-[5-methyl-2-(2-pyridyl)-7,8-dihydro-5H-pyrido[4,3-d]pyrimidin-6-yl]methanone] are within 0.2 log units of each other in pIC50: 5.57 for the first, 5.74 for the second.

Compared with COc1ccc(C(=O)N2CCc3nc(-c4ccccn4)ncc3C2)cn1 [Example 36, (6-Methoxy-3-pyridyl)-[2-(2-pyridyl)-7,8-dihydro-5H-pyrido[4,3-d]pyrimidin-6-yl]methanone], Cc1ccc(C(=O)N2CCc3nc(-c4ccccn4)ncc3C2)cn1 [Example 31, (6-Methyl-3-pyridyl)-[2-(2-pyridyl)-7,8-dihydro-5H-pyrido[4,3-d]pyrimidin-6-yl]methanone] is 0.90 log units lower in pIC50: 5.40 for the first, 4.50 for the second.

Compared with COc1cc(C(=O)N2CCc3nc(-c4ccccn4)ncc3C2)cc(OC)c1OC [Example 16, [2-(2-Pyridyl)-7,8-dihydro-5H-pyrido[4,3-d]pyrimidin-6-yl]-(3,4,5-trimethoxyphenyl)methanone], COc1ccc(C(=O)N2CCc3nc(-c4ccccn4)ncc3C2)cc1OC [Example 22, (3,4-Dimethoxyphenyl)-[2-(2-pyridyl)-7,8-dihydro-5H-pyrido[4,3-d]pyrimidin-6-yl]methanone] is 0.53 log units lower in pIC50: 5.08 for the first, 4.55 for the second. The first is the more potent here.

First: O=C(c1ccccc1)N1CCc2nc(-c3ccccn3)ncc2C1 [Example 4, Phenyl-[2-(2-pyridyl)-7,8-dihydro-5H-pyrido[4,3-d]pyrimidin-6-yl]methanone]
Second: O=C(c1ccc(Cl)cc1)N1CCc2nc(-c3ccccn3)ncc2C1 [Example 5, (4-Chlorophenyl)-[2-(2-pyridyl)-7,8-dihydro-5H-pyrido[4,3-d]pyrimidin-6-yl]methanone]
The pIC50 of the first is 0.33 log units lower: 4.61 for the first, 4.94 for the second.

CCOc1cc(OCC)cc(C(=O)N2CCc3nc(-c4ccccn4)ncc3C2)c1 [Example 17, (3,5-Diethoxyphenyl)-[2-(2-pyridyl)-7,8-dihydro-5H-pyrido[4,3-d]pyrimidin-6-yl]methanone] and COc1cc(OC)cc(C(=O)N2CCc3nc(-c4ccccn4)ncc3C2)c1 [Example 19, (3,5-Dimethoxyphenyl)-[2-(2-pyridyl)-7,8-dihydro-5H-pyrido[4,3-d]pyrimidin-6-yl]methanone] are within 0.2 log units of each other in pIC50: 5.12 for the first, 5.05 for the second.

O=C(c1ccc(F)c(F)c1)N1CCc2nc(-c3ccccn3)ncc2C1 [Example 10, (3,4-Difluorophenyl)-[2-(2-pyridyl)-7,8-dihydro-5H-pyrido[4,3-d]pyrimidin-6-yl]methanone] and O=C(c1ccc(F)c(O)c1)N1CCc2nc(-c3ccccn3)ncc2C1 [Example 11, (4-Fluoro-3-hydroxy-phenyl)-[2-(2-pyridyl)-7,8-dihydro-5H-pyrido[4,3-d]pyrimidin-6-yl]methanone] are within 0.2 log units of each other in pIC50: 4.58 for the first, 4.68 for the second.

First: O=C(c1ccc(O)c(Cl)c1)N1CCc2nc(-c3ccccn3)ncc2C1 [Example 23, (3-chloro-4-hydroxy-phenyl)-[2-(2-pyridyl)-7,8-dihydro-5H-pyrido[4,3-d]pyrimidin-6-yl]methanone]
Second: COc1ccc(C(=O)N2CCc3nc(-c4ccccn4)ncc3C2)cc1F [Example 7, (3-Fluoro-4-methoxy-phenyl)-[2-(2-pyridyl)-7,8-dihydro-5H-pyrido[4,3-d]pyrimidin-6-yl]methanone]
The pIC50 of the first is 0.64 log units lower: 4.67 for the first, 5.31 for the second.

First: CC1c2cnc(-c3ccccn3)nc2CCN1C(=O)c1cc2ccccc2s1 (stereo not drawn) [Example 48, Benzothiophen-2-yl-[5-methyl-2-(2-pyridyl)-7,8-dihydro-5H-pyrido[4,3-d]pyrimidin-6-yl]methanone]
Second: CC1c2cnc(-c3ccccn3)nc2CCN1C(=O)c1ccc2cc[nH]c2c1 (stereo not drawn) [Example 46, 1H-ndol-6-yl-[5-methyl-2-(2-pyridyl)-7,8-dihydro-5H-pyrido[4,3-d]pyrimidin-6-yl]methanone]
The pIC50 of the first is 0.65 log units higher: 6.33 for the first, 5.68 for the second.

First: COCCCOc1ccc(C(=O)N2CCc3nc(-c4ncccn4)ncc3C2C)cc1Cl (stereo not drawn) [Example 40, [3-Chloro-4-(3-methoxypropoxy)phenyl]-(5-methyl-2-pyrimidin-2-yl-7,8-dihydro-5H-pyrido[4,3-d]pyrimidin-6-yl)methanone]
Second: CC1c2cnc(-c3ncccn3)nc2CCN1C(=O)c1nn(C)c2ccccc12 (stereo not drawn) [Example 62, (1-Methylindazol-3-yl)-(5-methyl-2-pyrimidin-2-yl-7,8-dihydro-5H-pyrido[4,3-d]pyrimidin-6-yl)methanone]
The pIC50 of the first is 0.67 log units lower: 5.71 for the first, 6.38 for the second.

Going from CC1c2cnc(-c3ccccn3)nc2CCN1C(=O)c1nccs1 (stereo not drawn) [Example 51, [5-Methyl-2-(2-pyridyl)-7,8-dihydro-5H-pyrido[4,3-d]pyrimidin-6-yl]-thiazol-2-yl-methanone] to CC1c2cnc(-c3ccccn3)nc2CCN1C(=O)c1nccn1C (stereo not drawn) [Example 57, (1-Methylimidazol-2-yl)-[5-methyl-2-(2-pyridyl)-7,8-dihydro-5H-pyrido[4,3-d]pyrimidin-6-yl]methanone], the pIC50 falls from 6.20 to 5.49 (0.71 log units). The first is the more potent here.

Compared with COc1cc(F)cc(C(=O)N2CCc3nc(-c4ccccn4)ncc3C2)c1 [Example 38, (3-Fluoro-5-methoxy-phenyl)-[2-(2-pyridyl)-7,8-dihydro-5H-pyrido[4,3-d]pyrimidin-6-yl]methanone], COc1ccc(C(=O)N2CCc3nc(-c4ccccn4)ncc3C2)cc1 [Example 39, (4-Methoxyphenyl)-[2-(2-pyridyl)-7,8-dihydro-5H-pyrido[4,3-d]pyrimidin-6-yl]methanone] is 0.31 log units higher in pIC50: 4.66 for the first, 4.97 for the second. The second is the more potent here.

Going from CC1c2cnc(-c3ncccn3)nc2CCN1C(=O)c1nn(Cc2ccccc2)c2ccccc12 (stereo not drawn) [Example 65, (1-Benzylindazol-3-yl)-(5-methyl-2-pyrimidin-2-yl-7,8-dihydro-5H-pyrido[4,3-d]pyrimidin-6-yl)methanone] to Cc1ncoc1C(=O)N1CCc2nc(-c3ccccn3)ncc2C1C (stereo not drawn) [Example 45, (4-Methyloxazol-5-yl)-[5-methyl-2-(2-pyridyl)-7,8-dihydro-5H-pyrido[4,3-d]pyrimidin-6-yl]methanone], the pIC50 falls from 6.41 to 5.84 (0.57 log units). The first is the more potent here.

Going from Cc1ccc(C(=O)N2CCc3nc(-c4ccccn4)ncc3C2)nc1 [Example 27, (5-Methyl-2-pyridyl)-[2-(2-pyridyl)-7,8-dihydro-5H-pyrido[4,3-d]pyrimidin-6-yl]methanone] to Cc1csc(C(=O)N2CCc3nc(-c4ccccn4)ncc3C2)c1 [Example 32, (4-Methyl-2-thienyl)-[2-(2-pyridyl)-7,8-dihydro-5H-pyrido[4,3-d]pyrimidin-6-yl]methanone], the pIC50 rises from 4.62 to 5.78 (1.16 log units).

For COCCCOc1ccc(C(=O)N2CCc3nc(-c4ccccn4)ncc3C2)cc1OC [Example 26, [3-Methoxy-4-(3-methoxypropoxy)phenyl]-[2-(2-pyridyl)-7,8-dihydro-5H-pyrido[4,3-d]pyrimidin-6-yl]methanone], the pIC50 was 5.50.

Tested on: HBV DNA
Assay: HBV DNA assay (real-time qPCR of extracellular HBV DNA, HepG2.2.15 cells)
Type: cell-based
Settings: Hepatitis B virus, 144 h, extracellular HBV DNA in supernatant, six days after treatment, read-out: IC50 (Anti HBV DNA production activity)
Protocol: as §1
The assay employs real-time qPCR (TaqMan) to directly measure extracellular HBV DNA copy number in the cell supernatant. HepG2.2.15 cells were plated in 96-well microtiter plates before treatment with complete medium (DMEM, Glutamax, 10% FBS, 1% Penicillin/Streptomycin, 250 μg/mL Genetycin, final DMSO concentration is 1%). Only the interior wells were utilized to reduce “edge effects” observed during cell culture, the exterior wells were filled with complete medium to help minimize sample evaporation. […]

In the case of COc1ccc(C(=O)N2CCc3nc(-c4ccccn4)ncc3C2C)s1 (stereo not drawn) [Example 58, (5-Methoxy-2-thienyl)-[5-methyl-2-(2-pyridyl)-7,8-dihydro-5H-pyrido[4,3-d]pyrimidin-6-yl]methanone], the pIC50 was 4.38.
